# In PubChem BioAssay (NCI):
#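 Dose response: 5 concentrations. Exposure: 48 h. Format: 96-well plates. Endpoint: linear interpolation; highest concentration if not reached. TGI is the concentration that stops growth completely.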
# Tests used:
# Experiment in all cases: inhibition of tumour cell growth, NCI panel, 48 h
# HT29 colon = system: HT29 colon
# A498 renal = system: A498 renal
# HCT-116 colon = system: HCT-116 colon
# RXF 393 renal = system: RXF 393 renal
# UACC-257 melanoma = system: UACC-257 melanoma
# OVCAR-5 ovarian = system: OVCAR-5 ovarian
# MDA-N = system: MDA-N
# PC-3 prostate = system: PC-3 prostate
# MDA-MB-231 breast = system: MDA-MB-231 breast
# MDA-MB-435 = system: MDA-MB-435
# MOLT-4 leukemia = system: MOLT-4 leukemia
# UACC-62 melanoma = system: UACC-62 melanoma
# HCT-15 colon = system: HCT-15 colon
# SK-OV-3 ovarian = system: SK-OV-3 ovarian
# CCRF-CEM leukemia = system: CCRF-CEM leukemia
# HL-60(TB) leukemia = system: HL-60(TB) leukemia
# NCI-H522 lung = system: NCI-H522 lung
# K-562 leukemia = system: K-562 leukemia
# A549 NSCLC = system: A549 NSCLC
# IGROV1 ovarian = system: IGROV1 ovarian
# SN12C renal = system: SN12C renal
# EKVX NSCLC = system: EKVX NSCLC
# SW-620 colon = system: SW-620 colon
# SNB-75 CNS = system: SNB-75 CNS
# RPMI-8226 leukemia = system: RPMI-8226 leukemia
# U251 CNS = system: U251 CNS
# NCI-H226 lung = system: NCI-H226 lung
# SNB-19 CNS = system: SNB-19 CNS
# TK-10 renal = system: TK-10 renal
# KM12 colon = system: KM12 colon
# 786-0 renal = system: 786-0 renal
# NCI/ADR-RES ovarian = system: NCI/ADR-RES ovarian
# LOX IMVI melanoma = system: LOX IMVI melanoma
# HCC-2998 colon = system: HCC-2998 colon
# HOP-92 NSCLC = system: HOP-92 NSCLC
# T-47D breast = system: T-47D breast
# MCF7 breast = system: MCF7 breast
# SF-539 CNS = system: SF-539 CNS
# HOP-62 NSCLC = system: HOP-62 NSCLC
# NCI-H23 lung = system: NCI-H23 lung
# M14 melanoma = system: M14 melanoma
# DU-145 prostate = system: DU-145 prostate
# SK-MEL-2 melanoma = system: SK-MEL-2 melanoma
# OVCAR-3 ovarian = system: OVCAR-3 ovarian
# CAKI-1 renal = system: CAKI-1 renal
# OVCAR-4 ovarian = system: OVCAR-4 ovarian
# UO-31 renal = system: UO-31 renal
# MALME-3M melanoma = system: MALME-3M melanoma
# ACHN renal = system: ACHN renal
# SK-MEL-5 melanoma = system: SK-MEL-5 melanoma
# SF-295 CNS = system: SF-295 CNS
# OVCAR-8 ovarian = system: OVCAR-8 ovarian
# COLO 205 colon = system: COLO 205 colon
# SK-MEL-28 melanoma = system: SK-MEL-28 melanoma
# SF-268 CNS = system: SF-268 CNS
# NCI-H460 lung = system: NCI-H460 lung
# BT-549 breast = system: BT-549 breast
# HS 578T breast = system: HS 578T breast
# SR leukemia = system: SR leukemia
smiles,measurement,setting,value
C=C1C(=O)O[C@@H]2C(=O)[C@@H](C)CCC/C(C)=C/CC[C@@]3(C)O[C@@H]3C[C@@H]12,TGI,HT29 colon,31.1 µM
same,TGI,A498 renal,> 100 µM
same,TGI,HCT-116 colon,96.1 µM
same,TGI,RXF 393 renal,17.1 µM
same,TGI,UACC-257 melanoma,> 100 µM
same,TGI,OVCAR-5 ovarian,> 100 µM
same,TGI,MDA-N,> 100 µM
same,TGI,PC-3 prostate,> 100 µM
same,TGI,MDA-MB-231 breast,> 100 µM
same,TGI,MDA-MB-435,> 100 µM
same,TGI,MOLT-4 leukemia,> 100 µM
same,TGI,UACC-62 melanoma,> 100 µM
same,TGI,HCT-15 colon,44 µM
same,TGI,SK-OV-3 ovarian,> 100 µM
same,TGI,CCRF-CEM leukemia,30.2 µM
same,TGI,HL-60(TB) leukemia,33.4 µM
same,TGI,NCI-H522 lung,25.2 µM
same,TGI,K-562 leukemia,34.8 µM
same,TGI,A549 NSCLC,> 100 µM
same,TGI,IGROV1 ovarian,45.7 µM
same,TGI,SN12C renal,> 100 µM
same,TGI,EKVX NSCLC,> 100 µM
same,TGI,SW-620 colon,43.4 µM
same,TGI,SNB-75 CNS,56.8 µM
same,TGI,RPMI-8226 leukemia,54.1 µM
same,TGI,U251 CNS,> 100 µM
same,TGI,NCI-H226 lung,> 100 µM
same,TGI,SNB-19 CNS,> 100 µM
same,TGI,TK-10 renal,81.6 µM
same,TGI,KM12 colon,> 100 µM
same,TGI,786-0 renal,43.9 µM
same,TGI,NCI/ADR-RES ovarian,> 100 µM
same,TGI,LOX IMVI melanoma,36.9 µM
same,TGI,HCC-2998 colon,> 100 µM
same,TGI,HOP-92 NSCLC,31.2 µM
same,TGI,T-47D breast,> 100 µM
same,TGI,MCF7 breast,> 100 µM
same,TGI,SF-539 CNS,60.6 µM
same,TGI,HOP-62 NSCLC,> 100 µM
same,TGI,NCI-H23 lung,> 100 µM
same,TGI,M14 melanoma,> 100 µM
same,TGI,DU-145 prostate,> 100 µM
same,TGI,SK-MEL-2 melanoma,> 100 µM
same,TGI,OVCAR-3 ovarian,> 100 µM
same,TGI,CAKI-1 renal,37.5 µM
same,TGI,OVCAR-4 ovarian,> 100 µM
same,TGI,UO-31 renal,> 100 µM
same,TGI,MALME-3M melanoma,> 100 µM
same,TGI,ACHN renal,> 100 µM
same,TGI,SK-MEL-5 melanoma,56.7 µM
same,TGI,SF-295 CNS,> 100 µM
same,TGI,OVCAR-8 ovarian,> 100 µM
same,TGI,COLO 205 colon,47.9 µM
same,TGI,SK-MEL-28 melanoma,> 100 µM
Nc1c2c(nc3ccccc13)-c1ccccc1CC2,TGI,SF-268 CNS,22.3 µM
same,TGI,A498 renal,16.2 µM
same,TGI,NCI-H460 lung,6.22 µM
same,TGI,HCT-116 colon,13.5 µM
same,TGI,BT-549 breast,27 µM
same,TGI,UACC-257 melanoma,9.09 µM
same,TGI,MDA-N,16 µM
same,TGI,HS 578T breast,40.5 µM
same,TGI,PC-3 prostate,14.4 µM
same,TGI,MDA-MB-231 breast,17.8 µM
same,TGI,MOLT-4 leukemia,9.23 µM
same,TGI,UACC-62 melanoma,21.4 µM
same,TGI,HCT-15 colon,17.5 µM
same,TGI,CCRF-CEM leukemia,18.9 µM
same,TGI,HL-60(TB) leukemia,14.5 µM
same,TGI,NCI-H522 lung,24.5 µM
same,TGI,K-562 leukemia,17.3 µM
same,TGI,IGROV1 ovarian,19.8 µM
same,TGI,SN12C renal,16.9 µM
same,TGI,SW-620 colon,14.8 µM
same,TGI,RPMI-8226 leukemia,21.7 µM
same,TGI,SR leukemia,9.31 µM
same,TGI,U251 CNS,15.8 µM
same,TGI,NCI-H226 lung,31.5 µM
same,TGI,TK-10 renal,14.7 µM
same,TGI,786-0 renal,14.1 µM
same,TGI,NCI/ADR-RES ovarian,27.8 µM
same,TGI,LOX IMVI melanoma,15.5 µM
same,TGI,HCC-2998 colon,2.81 µM
same,TGI,HOP-92 NSCLC,21.9 µM
same,TGI,MCF7 breast,13.8 µM
same,TGI,SF-539 CNS,15.1 µM
same,TGI,NCI-H23 lung,27.2 µM
same,TGI,SK-MEL-2 melanoma,23 µM
same,TGI,MALME-3M melanoma,20.8 µM
same,TGI,ACHN renal,14.1 µM
same,TGI,SK-MEL-5 melanoma,15.3 µM
same,TGI,OVCAR-8 ovarian,18 µM
same,TGI,COLO 205 colon,15.8 µM
same,TGI,SK-MEL-28 melanoma,22.8 µM
CC(C)=CCC\C(C)=C/C=C/C(C)=C\C=C\C(C)=C/C=C/C=C(C)\C=C\C=C(C)/C=C/C=C(/C)CCC=C(C)C,TGI,SF-268 CNS,> 100 µM
same,TGI,HT29 colon,> 100 µM
same,TGI,A498 renal,> 100 µM
same,TGI,HCT-116 colon,> 100 µM
same,TGI,BT-549 breast,> 100 µM
same,TGI,RXF 393 renal,> 100 µM
same,TGI,UACC-257 melanoma,> 100 µM
same,TGI,OVCAR-5 ovarian,> 100 µM
same,TGI,MDA-N,> 100 µM
same,TGI,HS 578T breast,> 100 µM
same,TGI,PC-3 prostate,> 100 µM
same,TGI,MDA-MB-231 breast,> 100 µM
same,TGI,MDA-MB-435,> 100 µM
same,TGI,MOLT-4 leukemia,> 100 µM
same,TGI,UACC-62 melanoma,> 100 µM
same,TGI,HCT-15 colon,> 100 µM
same,TGI,SK-OV-3 ovarian,> 100 µM
same,TGI,CCRF-CEM leukemia,> 100 µM
same,TGI,HL-60(TB) leukemia,> 100 µM
same,TGI,K-562 leukemia,> 100 µM
same,TGI,A549 NSCLC,> 100 µM
same,TGI,IGROV1 ovarian,> 100 µM
same,TGI,SN12C renal,> 100 µM
same,TGI,EKVX NSCLC,> 100 µM
same,TGI,SW-620 colon,> 100 µM
same,TGI,SNB-75 CNS,> 100 µM
same,TGI,SR leukemia,> 100 µM
same,TGI,NCI-H226 lung,> 100 µM
same,TGI,SNB-19 CNS,> 100 µM
same,TGI,TK-10 renal,> 100 µM
same,TGI,KM12 colon,> 100 µM
same,TGI,786-0 renal,> 100 µM
same,TGI,NCI/ADR-RES ovarian,> 100 µM
same,TGI,LOX IMVI melanoma,> 100 µM
same,TGI,HCC-2998 colon,> 100 µM
same,TGI,HOP-92 NSCLC,> 100 µM
same,TGI,MCF7 breast,> 100 µM
same,TGI,SF-539 CNS,> 100 µM
same,TGI,HOP-62 NSCLC,> 100 µM
same,TGI,M14 melanoma,> 100 µM
same,TGI,DU-145 prostate,> 100 µM
same,TGI,SK-MEL-2 melanoma,> 100 µM
same,TGI,OVCAR-3 ovarian,> 100 µM
same,TGI,CAKI-1 renal,> 100 µM
same,TGI,OVCAR-4 ovarian,> 100 µM
same,TGI,UO-31 renal,> 100 µM
same,TGI,MALME-3M melanoma,> 100 µM
same,TGI,ACHN renal,> 100 µM
same,TGI,SK-MEL-5 melanoma,> 100 µM
same,TGI,SF-295 CNS,> 100 µM
same,TGI,OVCAR-8 ovarian,> 100 µM
same,TGI,COLO 205 colon,> 100 µM
same,TGI,SK-MEL-28 melanoma,> 100 µM
Cc1ccc(Cl)c2[nH]c(-c3ccccc3)cc(=O)c12,TGI,SF-268 CNS,79.7 µM
same,TGI,HT29 colon,> 100 µM
same,TGI,A498 renal,> 100 µM
same,TGI,NCI-H460 lung,> 100 µM
same,TGI,HCT-116 colon,> 100 µM
same,TGI,RXF 393 renal,> 100 µM
same,TGI,UACC-257 melanoma,> 100 µM
same,TGI,OVCAR-5 ovarian,> 100 µM
same,TGI,MDA-N,> 100 µM
same,TGI,HS 578T breast,> 100 µM
same,TGI,PC-3 prostate,> 100 µM
same,TGI,MDA-MB-231 breast,> 100 µM
same,TGI,MDA-MB-435,> 100 µM
same,TGI,MOLT-4 leukemia,> 100 µM
same,TGI,UACC-62 melanoma,> 100 µM
same,TGI,HCT-15 colon,> 100 µM
same,TGI,SK-OV-3 ovarian,> 100 µM
same,TGI,CCRF-CEM leukemia,> 100 µM
same,TGI,HL-60(TB) leukemia,> 100 µM
same,TGI,NCI-H522 lung,> 100 µM
same,TGI,K-562 leukemia,> 100 µM
same,TGI,A549 NSCLC,72 µM
same,TGI,IGROV1 ovarian,> 100 µM
same,TGI,SN12C renal,> 100 µM
same,TGI,EKVX NSCLC,45 µM
same,TGI,SW-620 colon,> 100 µM
same,TGI,SNB-75 CNS,> 100 µM
same,TGI,RPMI-8226 leukemia,> 100 µM
same,TGI,U251 CNS,> 100 µM
same,TGI,NCI-H226 lung,> 100 µM
same,TGI,TK-10 renal,> 100 µM
same,TGI,KM12 colon,> 100 µM
same,TGI,786-0 renal,> 100 µM
same,TGI,NCI/ADR-RES ovarian,> 100 µM
same,TGI,LOX IMVI melanoma,> 100 µM
same,TGI,HCC-2998 colon,> 100 µM
same,TGI,T-47D breast,> 100 µM
same,TGI,MCF7 breast,34.6 µM
same,TGI,HOP-62 NSCLC,> 100 µM
same,TGI,NCI-H23 lung,> 100 µM
same,TGI,M14 melanoma,> 100 µM
same,TGI,DU-145 prostate,> 100 µM
same,TGI,SK-MEL-2 melanoma,> 100 µM
same,TGI,OVCAR-3 ovarian,> 100 µM
same,TGI,OVCAR-4 ovarian,> 100 µM
same,TGI,MALME-3M melanoma,> 100 µM
same,TGI,ACHN renal,98.4 µM
same,TGI,SK-MEL-5 melanoma,> 100 µM
same,TGI,SF-295 CNS,> 100 µM
same,TGI,OVCAR-8 ovarian,> 100 µM
same,TGI,COLO 205 colon,> 100 µM
same,TGI,SK-MEL-28 melanoma,> 100 µM
